Measured values taken from the NIST ThermoML archive (doi:10.1021/je060271a).
Where “and” joins values, the source holds several entries; their conditions need not be identical. Equal values may be shown once.

Settings: 283.14 K, Liquid, Vibrating tube method

CCCCCCC(=O)OCC(COC(=O)CCCCCC)(COC(=O)CCCCCC)COC(=O)CCCCCC [pentaerythritol tetraheptanoate]
Settings	mass density
99.9 kPa	986 kg/m3
100.4 kPa	985.9 kg/m3 and 986 kg/m3
100.6 kPa	985.8 kg/m3
100.8 kPa	985.9 kg/m3
100.9 kPa	985.9 kg/m3
104.1 kPa	985.9 kg/m3
108.1 kPa	985.9 kg/m3
116.6 kPa	986 kg/m3
124.9 kPa	986 kg/m3
130.8 kPa	986 kg/m3
135.4 kPa	985.9 kg/m3
142 kPa	985.9 kg/m3
146.3 kPa	986 kg/m3
150.6 kPa	986 kg/m3
154.5 kPa	986 kg/m3
158.5 kPa	986 kg/m3
164.2 kPa	986 kg/m3
168.9 kPa	985.9 kg/m3
174.6 kPa	986 kg/m3
181.1 kPa	986 kg/m3
189.8 kPa	986 kg/m3
198.1 kPa	986 kg/m3
208.7 kPa	986 kg/m3
218.8 kPa	986 kg/m3
231 kPa	985.9 kg/m3
246.9 kPa	986 kg/m3
262.2 kPa	986 kg/m3
279.6 kPa	985.9 kg/m3
304.3 kPa	985.9 kg/m3
328.1 kPa	986 kg/m3
354.9 kPa	986 kg/m3
383.4 kPa	986.2 kg/m3
410.5 kPa	986.1 kg/m3
428.6 kPa	986.2 kg/m3
445.6 kPa	986.1 kg/m3
459.5 kPa	986.2 kg/m3
470.3 kPa	986.1 kg/m3
483.1 kPa	986.2 kg/m3
493.7 kPa	986.2 kg/m3
504.3 kPa	986.1 kg/m3
518.6 kPa	986.2 kg/m3
531.3 kPa	986.2 kg/m3
543.6 kPa	986.2 kg/m3
560.1 kPa	986.2 kg/m3
574.5 kPa	986.2 kg/m3
588.8 kPa	986.2 kg/m3
607.2 kPa	986.2 kg/m3
623.7 kPa	986.2 kg/m3
641.4 kPa	986.2 kg/m3
659.1 kPa	986.3 kg/m3
682.8 kPa	986.3 kg/m3
703.5 kPa	986.3 kg/m3
725 kPa	986.2 kg/m3
748.3 kPa	986.2 kg/m3
777.3 kPa	986.4 kg/m3
803.3 kPa	986.3 kg/m3
830.4 kPa	986.3 kg/m3
857.2 kPa	986.4 kg/m3
881.9 kPa	986.4 kg/m3
894.4 kPa	986.4 kg/m3
910.2 kPa	986.5 kg/m3
922.9 kPa	986.5 kg/m3
936.1 kPa	986.4 kg/m3
950.3 kPa	986.3 kg/m3
964.4 kPa	986.4 kg/m3
981.7 kPa	986.3 kg/m3
997.4 kPa	986.4 kg/m3
1013.2 kPa	986.5 kg/m3
1029.5 kPa	986.4 kg/m3
1046.2 kPa	986.4 kg/m3
1066 kPa	986.6 kg/m3
1084 kPa	986.4 kg/m3
1102.6 kPa	986.5 kg/m3
1119.8 kPa	986.5 kg/m3
1142.7 kPa	986.6 kg/m3
1162 kPa	986.6 kg/m3
1186.3 kPa	986.5 kg/m3
1207.3 kPa	986.5 kg/m3
1229.4 kPa	986.6 kg/m3
1252.5 kPa	986.5 kg/m3
1277.3 kPa	986.7 kg/m3
1301.1 kPa	986.6 kg/m3
1329.6 kPa	986.7 kg/m3
1354.8 kPa	986.6 kg/m3
1386.2 kPa	986.6 kg/m3
1412.2 kPa	986.7 kg/m3
1440.9 kPa	986.6 kg/m3
1469.5 kPa	986.6 kg/m3
1505.1 kPa	986.6 kg/m3
1536 kPa	986.8 kg/m3
1568.8 kPa	986.7 kg/m3
1609.6 kPa	986.8 kg/m3
1645.7 kPa	986.8 kg/m3
1682.5 kPa	986.8 kg/m3
1719 kPa	986.8 kg/m3
1765.3 kPa	986.9 kg/m3
1804.9 kPa	986.9 kg/m3
1848.1 kPa	986.9 kg/m3
1898.4 kPa	986.8 kg/m3
1940.3 kPa	987 kg/m3
1966.1 kPa	986.9 kg/m3
1976.7 kPa	987 kg/m3
1988.3 kPa	987.1 kg/m3
2001 kPa	987 kg/m3
2021 kPa	987 kg/m3
2110 kPa	987 kg/m3
2201.2 kPa	987.1 kg/m3
2343.8 kPa	987.2 kg/m3
2462.5 kPa	987.4 kg/m3
2487.8 kPa	987.3 kg/m3
2506.9 kPa	987.3 kg/m3
